According to patent US20080176906A1, “Substituted Pyrrole Derivative” (Takeda Pharmaceutical Company Limited, priority 2004, published 2008):
Where a chain is given by its changes, count along the chain named.

Legend:
[1] = target: T1, androgen receptor (AR) having a LNCaP type mutation (Homo sapiens, UniProt P10275, T878A); experiment: AR binding inhibitory test (LNCaP type); details: 1 μM compound, 3 nM miboleron, 4° C. for 3 hours, dextran/charcoal B/F separation; read-out: Inhibitory rate (%) at 1 μM, LNCaP type
T1 sequence (P10275 1-920 T878A): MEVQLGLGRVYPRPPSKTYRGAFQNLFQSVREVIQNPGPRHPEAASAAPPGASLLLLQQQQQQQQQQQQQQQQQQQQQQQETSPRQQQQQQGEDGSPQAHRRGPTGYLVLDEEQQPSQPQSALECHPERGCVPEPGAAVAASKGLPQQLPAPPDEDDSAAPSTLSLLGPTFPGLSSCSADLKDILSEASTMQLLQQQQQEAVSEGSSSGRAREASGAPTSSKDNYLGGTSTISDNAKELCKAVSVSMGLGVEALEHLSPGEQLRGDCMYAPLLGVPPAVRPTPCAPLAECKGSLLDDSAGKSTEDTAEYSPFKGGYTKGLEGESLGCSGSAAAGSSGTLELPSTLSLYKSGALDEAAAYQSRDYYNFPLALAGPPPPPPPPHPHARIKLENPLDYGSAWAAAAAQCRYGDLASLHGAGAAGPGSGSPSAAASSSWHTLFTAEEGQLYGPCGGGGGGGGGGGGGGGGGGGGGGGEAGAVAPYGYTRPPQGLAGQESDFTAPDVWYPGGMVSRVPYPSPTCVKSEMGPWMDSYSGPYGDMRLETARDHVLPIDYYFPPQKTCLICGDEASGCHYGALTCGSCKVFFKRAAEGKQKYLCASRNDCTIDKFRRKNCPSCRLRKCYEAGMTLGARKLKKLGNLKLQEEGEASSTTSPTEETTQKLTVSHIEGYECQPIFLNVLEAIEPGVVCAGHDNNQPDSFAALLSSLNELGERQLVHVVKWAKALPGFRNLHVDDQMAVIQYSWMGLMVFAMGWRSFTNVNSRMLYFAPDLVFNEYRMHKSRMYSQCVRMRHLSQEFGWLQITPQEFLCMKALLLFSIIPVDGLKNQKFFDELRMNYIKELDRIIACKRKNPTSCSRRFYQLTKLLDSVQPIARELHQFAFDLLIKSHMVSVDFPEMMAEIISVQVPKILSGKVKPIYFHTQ
Description: (§1) 3 nM miboleron and 1 μM of a compound was added to a solution containing a wild-type androgen receptor (AR) or an androgen receptor (AR) having a LNCaP type mutation, this was incubated at 4° C. for 3 hours, and B(Bound)/F(Free) separation was performed by a dextran/charcoal method. A label count of B was measured, and an inhibition rate of the compound was calculated.

[2] = target: T2, wild-type androgen receptor (AR) (Homo sapiens, UniProt P10275); experiment: AR binding inhibitory test (wild type); details: 1 μM compound, 3 nM miboleron, 4° C. for 3 hours, dextran/charcoal B/F separation; read-out: Inhibitory rate (%) at 1 μM, Wild type
T2 sequence (P10275 1-920): T1 sequence (P10275 1-920 T878A) with A878T
Description: as §1

[3] = system: human prostate cancer cell LNCaP-FGC; experiment: Prostate specific antigen (PSA) production inhibition in prostate cancer cell; type: cell-based; details: 72 h, 1 μM compound, testosterone 1 ng/mL, three days, PSA in culture supernatant by ELISA, testosterone non-added group 100%, testosterone-added group 0%, read-out: PSA production Inhibitory rate (%) at 1 μM
Description: A human prostate cancer cell LNCaP-FGC was inoculated on a 96-well plate at 5000 cells/100 μL/well and, on the next day, testosterone having the final concentration of 1 ng/mL and 1 μM of a compound were added. Three days after addition, the PSA concentration in the culture supernatant was measured by ELISA, and a PSA production inhibition rate was calculated, letting the rate of a testosterone non-added group to be 100%, and letting the rate of a testosterone-added group to be 0%.

mutated AR (W741C) = target: T3, mutated AR (W741C) (Homo sapiens, UniProt P10275, W742C); experiment: AR transcription inhibition test (luciferase reporter in Cos-7); type: cell-based; details: 0.1 μM compound, DHT 0.04 μM, 24 hours, luciferase activity, relative to a control
T3 construct: expressed in transfected cells; host or cells: Cos-7
T3 sequence (P10275 1-920 W742C): T1 sequence (P10275 1-920 T878A) with W742C, A878T
Description: 5,000,000 Cells of Cos-7 was inoculated on a flask, and cultured in a culturing solution (DMEM+10% Dextran Charcoal (DCC)-Fetal Bovine Serum (FBS)+2 mM glutamine) for 24 hours, and a vector DNA in which mutated AR (W741C) had been inserted, and a vector DNA in which a luciferase gene had been connected downstream of an androgen-responsive promoter were transfected by a liposome method. After two hours, the medium was exchanged, the cells were cultured for 3 hours, DHT (dihydrotestosterone) having the final concentration of 0.04 μM and an assessment compound having the final concentration of 0.1 μM were added, and the cells were cultured for 24 hours, and luciferase activity was measured to investigate AR transcription inhibition activity of the assessment compound.

mouse prostate = experiment: Test of reduction in weight of mouse prostate; type: in vivo; details: 8 week old male mouse, drug non-addition 0%, castration 100%
Source text: A rate of reduction in a prostate weight is shown in Table 5, letting at drug non-addition to be 0%, and letting at castration to be 100%.

Row | inhibition at 1 µM [1] [%] | inhibition at 1 µM [2] [%] | AR transcription Inhibitory rate (%) at 0.1 μM (mutated AR (W741C)) [%] | Compound | inhibition at 1 µM [3] [%] | Reduction rate (%) of prostate weight (mouse prostate; orally 100 mg/kg/day (bicalutamide) for 7 days) [%] | Reduction rate (%) of prostate weight (mouse prostate; orally 50 mg/kg/day for 7 days) [%]
1 | 96 | 98 | 78 | Cc1c(-c2ccc(C#N)cc2)c(C#N)c(C2CC2)n1Cc1cnc(Cl)c(CO)c1 [Compound 5, 1-{[6-Chloro-5-(hydroxymethyl)pyridin-3-yl]methyl}-4-(4-cyanophenyl)-2-cyclopropyl-5-methyl-1H-pyrrole-3-carbonitrile] | 99 | – | –
2 | 87 | 30 | – | Cc1c(-c2ccc(C#N)cc2)cc(C2CC2)n1Cc1cnc(Cl)c(CO)c1 [Example 48, 4-(1-{[6-Chloro-5-(hydroxymethyl)pyridin-3-yl]methyl}-5-cyclopropyl-2-methyl-1H-pyrrol-3-yl)benzonitrile] | 98 | – | –
3 | – | – | – | Cc1c(C#N)c(-c2cccc(C#N)c2)c(C)n1Cc1cnc(Cl)c(CO)c1 [Compound 7, 1-{[6-Chloro-5-(hydroxymethyl)pyridin-3-yl]methyl}-4-(3-cyanophenyl)-2,5-dimethyl-1H-pyrrole-3-carbonitrile] | 94 | – | –
4 | 89 | 86 | – | Cc1cc(-c2ccc(C#N)cc2)c(C)n1Cc1cnc(Cl)c(CO)c1 [Example 46, 4-(1-{[6-Chloro-5-(hydroxymethyl)pyridin-3-yl]methyl}-2,5-dimethyl-1H-pyrrol-3-yl)benzonitrile] | 95 | – | –
5 | 94 | 99 | 30 | CCc1c(C#N)c(-c2ccc(C#N)cc2)c(C)n1Cc1cnc(Cl)c(CO)c1 [Compound 2, 1-{[6-Chloro-5-(hydroxymethyl)pyridin-3-yl]methyl}-4-(4-cyanophenyl)-2-ethyl-5-methyl-1H-pyrrole-3-carbonitrile] | 95 | – | –
6 | 93 | 98 | 53 | Cc1c(C#N)c(-c2ccc(C#N)cc2)c(C)n1Cc1ccc(Cl)c(CO)c1 [Compound 26, 1-[4-Chloro-3-(hydroxymethyl)benzyl]-4-(4-cyanophenyl)-2,5-dimethyl-1H-pyrrole-3-carbonitrile] | 97 | – | –
7 | 81 | 50 | – | CCc1cc(-c2ccc(C#N)cc2)c(C)n1Cc1cnc(Cl)c(CO)c1 [Example 47, 4-(1-{[6-Chloro-5-(hydroxymethyl)pyridin-3-yl]methyl}-5-ethyl-2-methyl-1H-pyrrol-3-yl)benzonitrile] | – | – | –
8 | – | – | – | Cc1cc(-c2ccc(C#N)cc2)c(C#N)n1Cc1cnc(Cl)c(CO)c1 [Example 52, 1-{[6-Chloro-5-(hydroxymethyl)pyridin-3-yl]methyl}-3-(4-cyanophenyl)-5-methyl-1H-pyrrole-2-carbonitrile] | 99 | – | –
9 | – | – | – | CC(O)(CS(=O)(=O)c1ccc(F)cc1)C(=O)Nc1ccc(C#N)c(C(F)(F)F)c1 (stereo not drawn) [bicalutamide, reference compound] | 58 | 40 | –
10 | – | – | – | Cc1c(C#N)c(-c2ccc(C#N)cc2)c(C)n1Cc1cnc(Cl)c(C(O)C(F)(F)F)c1 (stereo not drawn) [Example 38, 1-{[6-Chloro-5-(2,2,2-trifluoro-1-hydroxyethyl)pyridin-3-yl]methyl}-4-(4-cyanophenyl)-2,5-dimethyl-1H-pyrrole-3-carbonitrile] | 94 | – | 68
11 | 99 | 96 | 78 | CCCc1c(C#N)c(-c2ccc(C#N)cc2)c(C)n1Cc1cnc(Cl)c(CO)c1 [Compound 3, 1-{[6-Chloro-5-(hydroxymethyl)pyridin-3-yl]methyl}-4-(4-cyanophenyl)-5-methyl-2-propyl-1H-pyrrole-3-carbonitrile] | 99 | – | –
